Results: ChEMBL document CHEMBL1201862, “PubChem BioAssay data set” (2004)
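1) Cells in 96-well plates. 2) Compound, 48 h, 5 concentrations. 3) Linear interpolation between surrounding doses. 4) Unreached endpoint = highest concentration. At the GI50, growth is halved.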 The source made the active and inactive calls. Rule as the data show it: active = GI50 up to about 1.1 µM and inactive = higher.

Assays:
Experiment in all cases: NCI-60 cell line screen, 48 h
NCI-H23 = tested on: NCI-H23
DMS-114 = tested on: DMS-114
SNB-75 = tested on: SNB-75
KM-20L2 = tested on: KM-20L2
A498 = tested on: A498
XF498 = tested on: XF498
RXF 393 = tested on: RXF 393
Malme-3M = tested on: Malme-3M
NCI-H522 = tested on: NCI-H522
SK-OV-3 = tested on: SK-OV-3
LOX IMVI = tested on: LOX IMVI
NCI-H460 = tested on: NCI-H460
OVCAR-3 = tested on: OVCAR-3
KM12 = tested on: KM12
SF-268 = tested on: SF-268
UO-31 = tested on: UO-31
ACHN = tested on: ACHN
786-0 = tested on: 786-0
SK-MEL-28 = tested on: SK-MEL-28
CCRF-CEM = tested on: CCRF-CEM
OVCAR-8 = tested on: OVCAR-8
HL-60 = tested on: HL-60
SW-620 = tested on: SW-620
U-251 = tested on: U-251
HOP-92 = tested on: HOP-92
M19-MEL = tested on: M19-MEL
HCT-116 = tested on: HCT-116
A549 = tested on: A549
HCC 2998 = tested on: HCC 2998
SN12C = tested on: SN12C
SK-MEL-5 = tested on: SK-MEL-5
M14 = tested on: M14
SNB-19 = tested on: SNB-19
NCI-H226 = tested on: NCI-H226
RPMI-8226 = tested on: RPMI-8226
K562 = tested on: K562
TK-10 = tested on: TK-10
HOP-62 = tested on: HOP-62
SF-295 = tested on: SF-295
MOLT-4 = tested on: MOLT-4
SK-MEL-2 = tested on: SK-MEL-2
HT-29 = tested on: HT-29
UACC-62 = tested on: UACC-62
DLD-1 = tested on: DLD-1
HCT-15 = tested on: HCT-15
UACC-257 = tested on: UACC-257
HOP-18 = tested on: HOP-18
SF-539 = tested on: SF-539
IGROV-1 = tested on: IGROV-1
COLO 205 = tested on: COLO 205
DMS-273 = tested on: DMS-273
CAKI-1 = tested on: CAKI-1
EKVX = tested on: EKVX
SNB-78 = tested on: SNB-78
OVCAR-5 = tested on: OVCAR-5
SR = tested on: SR
OVCAR-4 = tested on: OVCAR-4
LXFL 529 = tested on: LXFL 529

**Q.** With `COc1ccc([Se]c2ccc(OC)cc2)cc1` as the compound, how does the GI50 (NCI-H23) read?
**A.** 56.2 µM (inactive)

**Q.** And the GI50 (DMS-114)?
**A.** 29.1 µM (inactive)

**Q.** And the GI50 (SNB-75)?
**A.** 19.3 µM (inactive)

**Q.** And the GI50 (KM-20L2)?
**A.** 65.2 µM (inactive)

**Q.** And the GI50 (A498)?
**A.** 99.1 µM (inactive)

**Q.** And the GI50 (XF498)?
**A.** > 100 µM (inactive)

**Q.** And the GI50 (RXF 393)?
**A.** 19.5 µM (inactive)

**Q.** What about the GI50 (Malme-3M) of the same compound?
**A.** > 100 µM (inactive)

**Q.** What about the GI50 (NCI-H522) of the same compound?
**A.** 27.2 µM (inactive)

**Q.** What about the GI50 (SK-OV-3) of the same compound?
**A.** > 100 µM (inactive)

**Q.** And the GI50 (LOX IMVI)?
**A.** > 100 µM (inactive)

**Q.** What about the GI50 (NCI-H460) of the same compound?
**A.** > 100 µM (inactive)

**Q.** What about the GI50 (OVCAR-3) of the same compound?
**A.** 76.6 µM (inactive)

**Q.** What about the GI50 (KM12) of the same compound?
**A.** > 100 µM (inactive)

**Q.** And the GI50 (SF-268)?
**A.** 56.9 µM (inactive)

**Q.** What about the GI50 (UO-31) of the same compound?
**A.** 2.09 µM (inactive)

**Q.** What about the GI50 (ACHN) of the same compound?
**A.** > 100 µM (inactive)

**Q.** And the GI50 (786-0)?
**A.** > 100 µM (inactive)

**Q.** And the GI50 (SK-MEL-28)?
**A.** > 100 µM (inactive)

**Q.** What about the GI50 (CCRF-CEM) of the same compound?
**A.** 58.9 µM (inactive)

**Q.** What about the GI50 (OVCAR-8) of the same compound?
**A.** > 100 µM (inactive)

**Q.** What about the GI50 (HL-60) of the same compound?
**A.** 41.5 µM (inactive)

**Q.** What about the GI50 (SW-620) of the same compound?
**A.** > 100 µM (inactive)

**Q.** What about the GI50 (U-251) of the same compound?
**A.** > 100 µM (inactive)

**Q.** And the GI50 (HOP-92)?
**A.** 23.9 µM (inactive)

**Q.** What about the GI50 (M19-MEL) of the same compound?
**A.** 69.7 µM (inactive)

**Q.** What about the GI50 (HCT-116) of the same compound?
**A.** 55.2 µM (inactive)

**Q.** And the GI50 (A549)?
**A.** > 100 µM (inactive)

**Q.** What about the GI50 (HCC 2998) of the same compound?
**A.** > 100 µM (inactive)

**Q.** And the GI50 (SN12C)?
**A.** > 100 µM (inactive)

**Q.** What about the GI50 (SK-MEL-5) of the same compound?
**A.** 48.2 µM (inactive)

**Q.** What about the GI50 (M14) of the same compound?
**A.** > 100 µM (inactive)

**Q.** And the GI50 (SNB-19)?
**A.** > 100 µM (inactive)

**Q.** What about the GI50 (NCI-H226) of the same compound?
**A.** 17.4 µM (inactive)

**Q.** And the GI50 (RPMI-8226)?
**A.** 24.4 µM (inactive)

**Q.** What about the GI50 (K562) of the same compound?
**A.** 60.1 µM (inactive)

**Q.** What about the GI50 (TK-10) of the same compound?
**A.** > 100 µM (inactive)

**Q.** And the GI50 (HOP-62)?
**A.** > 100 µM (inactive)

**Q.** What about the GI50 (SF-295) of the same compound?
**A.** > 100 µM (inactive)

**Q.** And the GI50 (MOLT-4)?
**A.** 41.5 µM (inactive)

**Q.** What about the GI50 (SK-MEL-2) of the same compound?
**A.** > 100 µM (inactive)

**Q.** What about the GI50 (HT-29) of the same compound?
**A.** 43.6 µM (inactive)

**Q.** What about the GI50 (UACC-62) of the same compound?
**A.** > 100 µM (inactive)

**Q.** And the GI50 (DLD-1)?
**A.** > 100 µM (inactive)

**Q.** And the GI50 (HCT-15)?
**A.** 68.1 µM

**Q.** And the GI50 (UACC-257)?
**A.** 48.2 µM (inactive)

**Q.** And the GI50 (HOP-18)?
**A.** 27.9 µM (inactive)

**Q.** And the GI50 (SF-539)?
**A.** 73.3 µM (inactive)

**Q.** And the GI50 (IGROV-1)?
**A.** > 100 µM (inactive)

**Q.** And the GI50 (COLO 205)?
**A.** > 100 µM (inactive)

**Q.** What about the GI50 (DMS-273) of the same compound?
**A.** 92.5 µM (inactive)

**Q.** What about the GI50 (CAKI-1) of the same compound?
**A.** 23.3 µM (inactive)

**Q.** Which GI50 (NCI-H23) does the source give for `O=C1CC(c2ccccc2)=Nc2ccccc2N1` here?
**A.** > 100 µM (inactive)

**Q.** And the GI50 (SNB-75)?
**A.** > 100 µM (inactive)

**Q.** And the GI50 (KM-20L2)?
**A.** > 100 µM (inactive)

**Q.** And the GI50 (A498)?
**A.** 24.7 µM (inactive)

**Q.** What about the GI50 (XF498) of the same compound?
**A.** > 100 µM (inactive)

**Q.** What about the GI50 (EKVX) of the same compound?
**A.** > 100 µM (inactive)

**Q.** And the GI50 (RXF 393)?
**A.** > 100 µM (inactive)

**Q.** And the GI50 (Malme-3M)?
**A.** > 100 µM (inactive)

**Q.** What about the GI50 (NCI-H522) of the same compound?
**A.** > 100 µM (inactive)

**Q.** And the GI50 (SK-OV-3)?
**A.** > 100 µM (inactive)

**Q.** What about the GI50 (LOX IMVI) of the same compound?
**A.** 35 µM (inactive)

**Q.** And the GI50 (NCI-H460)?
**A.** 42 µM (inactive)

**Q.** What about the GI50 (OVCAR-3) of the same compound?
**A.** > 100 µM (inactive)

**Q.** What about the GI50 (KM12) of the same compound?
**A.** > 100 µM (inactive)

**Q.** What about the GI50 (SF-268) of the same compound?
**A.** > 100 µM (inactive)

**Q.** What about the GI50 (UO-31) of the same compound?
**A.** > 100 µM (inactive)

**Q.** And the GI50 (ACHN)?
**A.** > 100 µM (inactive)

**Q.** What about the GI50 (SNB-78) of the same compound?
**A.** > 100 µM (inactive)

**Q.** What about the GI50 (786-0) of the same compound?
**A.** > 100 µM (inactive)

**Q.** What about the GI50 (SK-MEL-28) of the same compound?
**A.** > 100 µM (inactive)

**Q.** What about the GI50 (CCRF-CEM) of the same compound?
**A.** 65 µM (inactive)

**Q.** What about the GI50 (OVCAR-8) of the same compound?
**A.** > 100 µM (inactive)

**Q.** What about the GI50 (OVCAR-5) of the same compound?
**A.** > 100 µM (inactive)

**Q.** And the GI50 (HL-60)?
**A.** 34.5 µM (inactive)

**Q.** What about the GI50 (SW-620) of the same compound?
**A.** 21.1 µM (inactive)

**Q.** And the GI50 (U-251)?
**A.** > 100 µM (inactive)

**Q.** And the GI50 (HOP-92)?
**A.** 81.1 µM (inactive)

**Q.** And the GI50 (M19-MEL)?
**A.** > 100 µM (inactive)

**Q.** And the GI50 (HCT-116)?
**A.** 86.5 µM (inactive)

**Q.** What about the GI50 (A549) of the same compound?
**A.** > 100 µM (inactive)

**Q.** And the GI50 (HCC 2998)?
**A.** > 100 µM (inactive)

**Q.** And the GI50 (SN12C)?
**A.** > 100 µM (inactive)

**Q.** And the GI50 (SK-MEL-5)?
**A.** > 100 µM (inactive)

**Q.** What about the GI50 (M14) of the same compound?
**A.** > 100 µM (inactive)

**Q.** And the GI50 (SNB-19)?
**A.** > 100 µM (inactive)

**Q.** And the GI50 (NCI-H226)?
**A.** > 100 µM (inactive)

**Q.** What about the GI50 (SR) of the same compound?
**A.** > 100 µM (inactive)

**Q.** What about the GI50 (K562) of the same compound?
**A.** > 100 µM (inactive)

**Q.** And the GI50 (TK-10)?
**A.** > 100 µM (inactive)

**Q.** And the GI50 (HOP-62)?
**A.** > 100 µM (inactive)

**Q.** What about the GI50 (SF-295) of the same compound?
**A.** > 100 µM (inactive)

**Q.** What about the GI50 (MOLT-4) of the same compound?
**A.** > 100 µM (inactive)

**Q.** And the GI50 (SK-MEL-2)?
**A.** > 100 µM (inactive)

**Q.** And the GI50 (HT-29)?
**A.** > 100 µM (inactive)

**Q.** What about the GI50 (UACC-62) of the same compound?
**A.** > 100 µM (inactive)

**Q.** And the GI50 (DLD-1)?
**A.** > 100 µM (inactive)

**Q.** What about the GI50 (HCT-15) of the same compound?
**A.** > 100 µM

**Q.** What about the GI50 (UACC-257) of the same compound?
**A.** > 100 µM (inactive)

**Q.** What about the GI50 (HOP-18) of the same compound?
**A.** > 100 µM (inactive)

**Q.** What about the GI50 (SF-539) of the same compound?
**A.** > 100 µM (inactive)

**Q.** And the GI50 (OVCAR-4)?
**A.** > 100 µM (inactive)

**Q.** And the GI50 (IGROV-1)?
**A.** > 100 µM (inactive)

**Q.** And the GI50 (LXFL 529)?
**A.** > 100 µM (inactive)

**Q.** What about the GI50 (COLO 205) of the same compound?
**A.** 98.9 µM (inactive)

**Q.** What about the GI50 (DMS-273) of the same compound?
**A.** > 100 µM (inactive)

**Q.** And the GI50 (CAKI-1)?
**A.** > 100 µM (inactive)
